# Test results as given in US9738612B2, “Methylacryloyl benzimidazolone derivative and anti-tumour use thereof” (SHANGHAI NATURE STANDARD R&D AND BIOTECH CO., LTD, priority 2014, dated 2017).
# What was measured:
# [1] = test system: Akt phosphorylation at S473 site; assay: ELISA (double antibody sandwich), Akt phosphorylation in IGF-1 stimulated A549 cells; assay type: cell-based; conditions: drug 1 h, then IGF-1 10 min, p-Akt (S473) ELISA
# Description: Establishment of ELISA screening method using a double antibody sandwich method: A549 cells (a lung cancer cell line, purchased from Chinese Academy of Sciences, Shanghai Institutes for Biological Sciences Cell Resource Center) were inoculated at certain densities in 12-well plates, and incubated at 37° C. in a carbon dioxide incubator overnight to let cells attach the plate wells. Meanwhile the Akt antibody was inoculated at a specific concentration in a highly-adsorbed microplate, and placed in a refrigerator at 4° C. The 12-well plates were washed with sterile PBS three times, then into which serum-free F12 was added, and incubated for 24 hours in a incubator. Then MK2206, Triciribine and FD series drugs were added into 12-well plates and worked for one hour, followed by adding 100 ng of IGF-1 and being stimulated for 10 minutes. The 12-well plates were washed with pre-cooled PBS three times, and 100 μl of RIPA lysis buffer was added into each well to lyse cells on ice for 20 minutes. The lysates were collected and added to the appropriate microplate (purchased from Santa Cruz biotechnology), which were shaken on ice. A p-Akt (S473) antibody (purchased Cell Signaling Technology, Inc.) was added into microplates. After shaking for a period of time, an anti-rabbit antibody (purchased from Cell Signaling Technology, Inc.) was added. The reaction was terminated with 2M sulfuric acid after TMB developed. Absorbance at 450 nm was measured on a microplate reader, and the inhibitory rate=[…], among which ODsample refers to the absorbance of the sample well, ODIGF refers the absorbance of the well with IGF only, OD—IGF refers the absorbance of the well withoutIGF.
# [2] = target: T1, LKB1(h) (Homo sapiens, UniProt Q15831); assay: Tumor-associated kinase inhibition test; assay type: biochemical; conditions: read-out: Inhibitory rate (%)
# T1 construct: purchased Eurofins Pharma Discovery Services UK Limited
# Source text: (§1) Eurofins Pharma Discovery Services UK Limited completed and reported this experiment.
# [3] = target: T2, MAPK2(h) (Homo sapiens, UniProt P28482); assay: Tumor-associated kinase inhibition test; assay type: biochemical; conditions: read-out: Inhibitory rate (%)
# T2 construct: purchased Eurofins Pharma Discovery Services UK Limited
# Source text: as §1
# [4] = target: T3, PAR-1Bα(h) (Homo sapiens, UniProt Q7KZI7); assay: Tumor-associated kinase inhibition test; assay type: biochemical; conditions: read-out: Inhibitory rate (%)
# T3 construct: purchased Eurofins Pharma Discovery Services UK Limited
# Source text: as §1
# [5] = target: T4, PIP5K1α(h) (Homo sapiens, UniProt Q99755); assay: Tumor-associated kinase inhibition test; assay type: biochemical; conditions: read-out: Inhibitory rate (%)
# T4 construct: purchased Eurofins Pharma Discovery Services UK Limited (contract assay)
# Source text: as §1
# [6] = target: T5, Plk1(h) (Homo sapiens, UniProt P53350); assay: Tumor-associated kinase inhibition test; assay type: biochemical; conditions: read-out: Inhibitory rate (%)
# T5 construct: purchased Eurofins Pharma Discovery Services UK Limited
# Source text: as §1
# [7] = target: T6, Ron(h) (Homo sapiens, UniProt Q04912); assay: Tumor-associated kinase inhibition test; assay type: biochemical; conditions: read-out: Inhibitory rate (%)
# T6 construct: purchased Eurofins Pharma Discovery Services UK Limited
# Source text: as §1
# [8] = target: T7, Rsk2(h) (Homo sapiens, UniProt P51812); assay: Tumor-associated kinase inhibition test; assay type: biochemical; conditions: read-out: Inhibitory rate (%)
# T7 construct: purchased Eurofins Pharma Discovery Services UK Limited
# Source text: as §1
# [9] = test system: Hela cell; assay: Sulforhodamine B proliferation; assay type: cell-based; conditions: Homo sapiens, SRB method of Example 2, FIG. 3, read-out: Half inhibitory concentration to Hela cell proliferation
# Description: At a certain density cells were seeded in 96-well plates, and adhered overnight. The medium was discarded after incubating cells with compounds to be tested for 72 h, then 100μL/well trichloroacetic acid (TCA) was added to fix cells at 4° C. for 2h. After that the fixing solution was discarded. Cells were gently washed 5 times with distilled water, dried at room temperature. Cells were stained with 4 mg/mL SRB staining solution (100 μL/well) at room temperature for 15min. The staining solution was discarded, and cells were washed five times with 1% acetic acid (HAC) and dried at room temperature. To the plate tris base buffer (10 mM) was added at 150 μL/well and placed at room temperature for 15min. The OD values were measured at 540 nm wavelength in a microplate reader. Inhibitory rate (%)=(OD valuecontrol wells−OD valuedrugs treated wells)/OD valuecontrol wells×100%.
# In the present invention the inhibition of a representative compound FD162 to the proliferation of more than 20 tumor cell lines were tested, and the experimental methods were the same as that described in Example 2.
# T4 sequence (Q99755 whole entry): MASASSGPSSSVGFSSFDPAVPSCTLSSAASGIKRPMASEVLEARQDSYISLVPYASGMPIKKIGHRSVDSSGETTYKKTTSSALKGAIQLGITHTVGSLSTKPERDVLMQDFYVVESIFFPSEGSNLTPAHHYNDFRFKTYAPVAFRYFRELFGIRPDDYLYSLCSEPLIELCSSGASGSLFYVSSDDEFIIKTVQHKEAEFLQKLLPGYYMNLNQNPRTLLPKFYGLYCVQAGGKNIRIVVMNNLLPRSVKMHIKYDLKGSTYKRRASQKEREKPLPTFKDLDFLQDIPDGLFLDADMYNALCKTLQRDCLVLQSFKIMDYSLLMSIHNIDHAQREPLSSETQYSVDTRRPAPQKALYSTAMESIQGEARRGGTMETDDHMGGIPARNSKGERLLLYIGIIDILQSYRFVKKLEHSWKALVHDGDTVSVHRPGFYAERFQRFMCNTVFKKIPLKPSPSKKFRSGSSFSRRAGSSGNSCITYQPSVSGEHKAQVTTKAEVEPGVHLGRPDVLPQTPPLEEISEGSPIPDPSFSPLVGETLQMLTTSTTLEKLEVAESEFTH
# T3 sequence (Q7KZI7 1-725 isoform Q7KZI7-4): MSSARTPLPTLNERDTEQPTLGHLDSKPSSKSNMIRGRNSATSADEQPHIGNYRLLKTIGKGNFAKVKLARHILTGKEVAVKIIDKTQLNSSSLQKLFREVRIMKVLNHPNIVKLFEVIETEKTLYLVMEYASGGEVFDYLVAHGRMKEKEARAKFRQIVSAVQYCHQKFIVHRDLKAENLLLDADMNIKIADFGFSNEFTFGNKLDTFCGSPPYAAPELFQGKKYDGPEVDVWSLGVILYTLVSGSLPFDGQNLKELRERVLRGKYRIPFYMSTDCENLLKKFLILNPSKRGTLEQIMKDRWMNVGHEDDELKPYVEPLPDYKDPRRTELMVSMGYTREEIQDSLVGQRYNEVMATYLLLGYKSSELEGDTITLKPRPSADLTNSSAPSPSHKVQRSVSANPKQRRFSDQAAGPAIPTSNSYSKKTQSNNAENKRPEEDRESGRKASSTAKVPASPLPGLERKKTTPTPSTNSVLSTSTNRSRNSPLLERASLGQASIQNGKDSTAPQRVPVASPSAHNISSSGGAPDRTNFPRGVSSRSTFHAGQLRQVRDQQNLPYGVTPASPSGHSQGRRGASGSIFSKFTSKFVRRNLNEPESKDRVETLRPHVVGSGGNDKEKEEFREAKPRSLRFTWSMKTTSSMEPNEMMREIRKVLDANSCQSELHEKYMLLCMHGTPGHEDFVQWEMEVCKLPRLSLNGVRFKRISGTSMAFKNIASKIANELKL
# T7 sequence (P51812 whole entry): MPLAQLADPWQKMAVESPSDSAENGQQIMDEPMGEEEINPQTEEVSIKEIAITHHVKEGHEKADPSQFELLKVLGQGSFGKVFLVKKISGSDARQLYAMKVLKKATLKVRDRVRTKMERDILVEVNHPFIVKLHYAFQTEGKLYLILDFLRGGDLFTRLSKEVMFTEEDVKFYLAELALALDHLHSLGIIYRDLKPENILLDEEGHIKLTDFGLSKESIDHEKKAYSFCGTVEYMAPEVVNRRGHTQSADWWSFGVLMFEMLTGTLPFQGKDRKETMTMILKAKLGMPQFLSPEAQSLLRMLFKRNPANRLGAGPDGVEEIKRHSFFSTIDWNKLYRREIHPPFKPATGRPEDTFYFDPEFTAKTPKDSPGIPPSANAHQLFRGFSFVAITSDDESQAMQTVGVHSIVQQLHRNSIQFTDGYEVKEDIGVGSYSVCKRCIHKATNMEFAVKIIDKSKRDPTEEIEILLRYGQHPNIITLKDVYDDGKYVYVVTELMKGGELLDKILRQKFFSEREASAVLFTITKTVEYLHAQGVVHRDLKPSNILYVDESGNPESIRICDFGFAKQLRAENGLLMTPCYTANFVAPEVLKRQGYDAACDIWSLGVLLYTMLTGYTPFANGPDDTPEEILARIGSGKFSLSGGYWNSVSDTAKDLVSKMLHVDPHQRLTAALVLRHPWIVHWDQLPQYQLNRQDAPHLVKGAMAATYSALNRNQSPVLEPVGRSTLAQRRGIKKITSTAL
# T5 sequence (P53350 whole entry): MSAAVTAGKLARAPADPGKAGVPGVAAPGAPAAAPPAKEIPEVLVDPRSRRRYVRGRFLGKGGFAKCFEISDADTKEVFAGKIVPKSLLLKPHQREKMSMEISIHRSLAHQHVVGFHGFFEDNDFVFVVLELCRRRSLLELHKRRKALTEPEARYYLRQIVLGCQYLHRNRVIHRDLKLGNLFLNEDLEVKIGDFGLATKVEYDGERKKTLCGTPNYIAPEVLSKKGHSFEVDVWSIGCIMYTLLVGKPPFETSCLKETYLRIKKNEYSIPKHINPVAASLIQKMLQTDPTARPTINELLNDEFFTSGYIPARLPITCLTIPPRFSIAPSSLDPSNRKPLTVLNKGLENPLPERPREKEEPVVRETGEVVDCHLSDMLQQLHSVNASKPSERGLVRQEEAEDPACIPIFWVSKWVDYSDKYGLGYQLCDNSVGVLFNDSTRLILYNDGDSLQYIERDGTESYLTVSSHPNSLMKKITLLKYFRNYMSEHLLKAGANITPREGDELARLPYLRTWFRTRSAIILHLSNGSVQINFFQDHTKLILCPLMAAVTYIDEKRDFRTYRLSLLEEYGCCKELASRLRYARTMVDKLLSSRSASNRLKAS
# T2 sequence (P28482 whole entry): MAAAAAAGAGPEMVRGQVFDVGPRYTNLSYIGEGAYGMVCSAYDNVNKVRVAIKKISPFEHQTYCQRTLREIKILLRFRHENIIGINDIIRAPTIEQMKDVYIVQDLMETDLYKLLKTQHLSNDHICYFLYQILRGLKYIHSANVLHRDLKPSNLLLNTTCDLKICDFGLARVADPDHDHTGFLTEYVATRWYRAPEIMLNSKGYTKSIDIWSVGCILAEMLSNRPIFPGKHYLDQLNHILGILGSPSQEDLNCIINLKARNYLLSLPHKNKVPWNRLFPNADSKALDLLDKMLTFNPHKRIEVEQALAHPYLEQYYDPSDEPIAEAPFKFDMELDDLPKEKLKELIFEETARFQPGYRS
# T1 sequence (Q15831 whole entry): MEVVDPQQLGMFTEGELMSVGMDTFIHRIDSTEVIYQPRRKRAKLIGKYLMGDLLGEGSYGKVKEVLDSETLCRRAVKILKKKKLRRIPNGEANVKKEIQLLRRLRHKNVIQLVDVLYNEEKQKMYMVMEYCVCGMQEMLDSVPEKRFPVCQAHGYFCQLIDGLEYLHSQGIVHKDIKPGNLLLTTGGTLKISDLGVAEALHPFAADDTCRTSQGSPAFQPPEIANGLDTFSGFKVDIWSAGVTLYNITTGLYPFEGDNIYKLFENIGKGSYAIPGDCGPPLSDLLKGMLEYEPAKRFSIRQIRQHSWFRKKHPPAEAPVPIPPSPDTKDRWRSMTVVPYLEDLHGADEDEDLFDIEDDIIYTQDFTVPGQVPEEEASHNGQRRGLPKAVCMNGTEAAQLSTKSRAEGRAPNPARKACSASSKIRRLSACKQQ
# T1 sequence (Q7RTN6 whole entry partner): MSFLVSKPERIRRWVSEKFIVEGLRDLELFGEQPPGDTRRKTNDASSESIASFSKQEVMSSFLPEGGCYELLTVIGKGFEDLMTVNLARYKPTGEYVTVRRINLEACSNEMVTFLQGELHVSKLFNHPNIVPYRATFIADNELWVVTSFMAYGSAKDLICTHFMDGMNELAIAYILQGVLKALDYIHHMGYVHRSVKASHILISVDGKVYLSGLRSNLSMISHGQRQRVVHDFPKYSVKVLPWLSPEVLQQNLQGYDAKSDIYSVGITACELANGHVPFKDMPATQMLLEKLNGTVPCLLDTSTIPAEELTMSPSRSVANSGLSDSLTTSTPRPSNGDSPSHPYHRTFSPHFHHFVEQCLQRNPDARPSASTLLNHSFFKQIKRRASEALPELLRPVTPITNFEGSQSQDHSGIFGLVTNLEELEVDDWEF
# T1 sequence (Q9Y376 whole entry partner): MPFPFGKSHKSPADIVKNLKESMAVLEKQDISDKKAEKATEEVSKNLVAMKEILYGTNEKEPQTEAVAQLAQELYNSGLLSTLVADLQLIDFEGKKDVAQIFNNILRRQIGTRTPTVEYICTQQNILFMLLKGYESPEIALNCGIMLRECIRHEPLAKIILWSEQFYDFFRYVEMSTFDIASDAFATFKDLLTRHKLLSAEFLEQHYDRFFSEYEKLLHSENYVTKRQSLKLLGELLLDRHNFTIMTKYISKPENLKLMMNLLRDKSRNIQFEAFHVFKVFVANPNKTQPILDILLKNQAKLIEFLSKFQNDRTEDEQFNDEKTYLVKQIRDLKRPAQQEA
structure (smiles),measurement,setting,value
C=C(C)n1c(=O)n(C(C)=O)c2ncc(Br)cc21 [FD162],Inhibitory rate % (Akt phosphorylation),[1],91%
same,inhibition at 10 µM,[2],8%
same,inhibition at 10 µM,[3],-6%
same,inhibition at 10 µM,[4],6%
same,inhibition at 10 µM,[5],-2%
same,inhibition at 10 µM,[6],7%
same,inhibition at 10 µM,[7],8%
same,inhibition at 10 µM,[8],4%
same,IC50,[9],3.67 µM
